Measured values published in patent US20160362432A1 (priority 2014, published 2016).

Target: T1, Human factor D (Homo sapiens, UniProt P00746)
T1 construct: purified from human serum; purchased Complement Technology, Inc; host or cells: human serum (natural source)
Assay: biochemical

T1 sequence (P00746 26-253): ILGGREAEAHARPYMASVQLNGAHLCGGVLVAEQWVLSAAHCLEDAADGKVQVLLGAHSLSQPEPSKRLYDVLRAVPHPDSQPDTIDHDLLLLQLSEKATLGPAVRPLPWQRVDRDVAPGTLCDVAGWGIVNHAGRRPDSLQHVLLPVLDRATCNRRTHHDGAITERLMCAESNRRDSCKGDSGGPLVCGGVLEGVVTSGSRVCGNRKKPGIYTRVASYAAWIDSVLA

With `CCOP(=O)(OCC)c1ccc2c(C(C)=O)cn(CC(=O)N3[C@@H]4CCC[C@@H]4C[C@H]3C(=O)NCc3cccc(Cl)c3F)c2c1` [Compound 5, diethyl 3-acetyl-1-(2-((2S,3aR,6aR)-2-(3-chloro-2-fluorobenzylcarbamoyl)hexahydrocyclopenta [b]pyrrol-1(2H)-yl)-2-oxoethyl)-1H-indol-6-ylphosphonate] the IC50 was 1 to 10 µM.
